Laboratory results as given in US6693116B2, “Adenosine receptor ligands” (Hoffmann-La Roche Inc., priority 2001, dated 2004).
pKi: −log10 of the molar value.

target: T1, human adenosine A2A receptor (Homo sapiens, UniProt P29274); test: [3H]-SCH-58261 binding assay, human adenosine A2A receptor; details: membranes of CHO cells recombinantly expressing the human A2A receptor, Ki from IC50 by Cheng-Prussoff equation, read-out: HA2A KI
T1 construct: expressed in transfected cells; host or cells: CHO cells, Semliki Forest virus expression system; membrane preparation
Description: Human Adenosine A2A Receptor
The human adenosine A2A receptor was recombinantly expressed in Chinese hamster ovary (CHO) cells using the semliki forest virus expression system. Cells were harvested, washed twice by centrifugation, homogenized and again washed by centrifugation. The final washed membrane pellet was suspended in a Tris (50 mM) buffer containing 120 mM NaCl, 5 mM KCl, 2 mM CaCl2 and 10 mM MgCl2 (pH 7.4) (buffer A). The [^3H]-SCH-58261 (Dionisotti et al., 1997, Br. J. Pharmacol. 121, 353) binding assay was carried out in 96-well plates in the presence of 2.5 μg of membrane protein, 0.5 mg of Ysi-poly-l-lysine SPA beads and 0.1 U adenosine deaminase in a final volume of 200 μl of buffer A. Non-specific binding was defined using xanthine amine congener (XAC; 2 μM). Compounds were tested at 10 concentrations from 10 μM to 0.3 nM. All assays were conducted in duplicate and repeated at least twice. Assay plates were incubated for 1 hour at room temperature before centrifugation and then bound ligand was determined using a Packard Topcount scintillation counter. IC50 values were calculated using a non-linear curve fitting program and Ki values calculated using the Cheng-Prussoff equation.
In accordance with the invention, the compounds of formula I have a high affinity toward the A2A receptor. The table below (after Example 10) describes specific values of prepared compounds.

T1 sequence (P29274 whole entry): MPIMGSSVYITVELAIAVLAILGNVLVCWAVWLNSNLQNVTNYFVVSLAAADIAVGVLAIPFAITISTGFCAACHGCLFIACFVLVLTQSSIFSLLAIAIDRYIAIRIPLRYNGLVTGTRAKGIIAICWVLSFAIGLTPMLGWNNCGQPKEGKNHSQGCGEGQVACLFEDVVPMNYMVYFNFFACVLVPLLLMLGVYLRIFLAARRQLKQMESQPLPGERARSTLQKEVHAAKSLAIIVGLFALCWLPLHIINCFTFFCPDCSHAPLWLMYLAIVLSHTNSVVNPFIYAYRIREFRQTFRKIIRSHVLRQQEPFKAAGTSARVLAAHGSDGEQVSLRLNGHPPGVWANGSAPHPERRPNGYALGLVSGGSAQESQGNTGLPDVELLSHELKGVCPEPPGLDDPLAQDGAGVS

SMILES | pKi
COc1ccc(-c2ccc(F)cc2)c2nc(NC(=O)c3ccc(Br)cc3)nn12 [Example 12, 4-Bromo-N-[8-(4-fluoro-phenyl)-5-methoxy-[1,2,4]triazolo[1,5-a]pyridin-2-yl]-benzamide] | 6.11
COc1ccc(Br)c(C(=O)Nc2nc3c(-c4cccc(F)c4)ccc(OC)n3n2)c1 [Example 14, 2-Bromo-N-[8-(3-fluoro-phenyl)-5-methoxy-[1,2,4]triazolo[1,5-a]pyridin-2-yl]-5-methoxy-benzamide] | 6.04
COc1ccc(-c2cccc(F)c2)c2nc(NC(=O)c3ccc(Br)o3)nn12 [Example 15, 5-Bromo-furan-2-carboxylic acid [8-(3-fluoro-phenyl)-5-methoxy-[1,2,4]triazolo[1,5-a]pyridin-2-yl]-amide] | 6.24
COc1cccc(-c2ccc(OC)n3nc(NC(=O)c4ccc(Br)o4)nc23)c1 [Example 16, 5-Bromo-furan-2-carboxylic acid [5-methoxy-8-(3-methoxy-phenyl)-[1,2,4]triazolo[1,5-a]pyridin-2-yl]-amide] | 6.25
COc1ccc(-c2ccc(F)cc2)c2nc(NC(=O)c3ccc(F)cc3)nn12 [Example 18, 4-Fluoro-N-[8-(4-fluoro-phenyl)-5-methoxy-[1,2,4]triazolo[1,5-a]pyridin-2-yl]-benzamide] | 6.18

The remaining lines, values ahead:

pKi | SMILES
6.05 | COc1ccc(-c2ccccc2)c2nc(NC(=O)c3ccc(C(F)(F)F)cc3)nn12 [Example 11, N-(5-Methoxy-8-phenyl-[1,2,4]triazolo[1,5-a]pyridin-2-yl)-4-trifluoromethyl-benzamide]
6.32 | COc1cccc(-c2ccc(OC)n3nc(NC(=O)c4ccc(Br)cc4)nc23)c1 [Example 13, 4-Bromo-N-[5-methoxy-8-(3-methoxy-phenyl)-[1,2,4]triazolo[1,5-a]pyridin-2-yl]-benzamide]
6.01 | COc1ccc(-c2ccccc2)c2nc(NC(=O)c3cccc(C)c3)nn12 [Example 17, N-(5-Methoxy-8-phenyl-[1,2,4]triazolo[1,5-a]pyridin-2-yl)-3-methyl-benzamide]
6.13 | COc1cccc(-c2ccc(OC)n3nc(NC(=O)c4ccc(F)cc4)nc23)c1 [Example 19, 4-Fluoro-N-[5-methoxy-8-(3-methoxy-phenyl)-[1,2,4]triazolo[1,5-a]pyridin-2-yl]-benzamide]
6.11 | COc1ccc(-c2ccc(F)cc2)c2nc(NC(=O)c3ccccc3F)nn12 [Example 20, 2-Fluoro-N-[8-(4-fluoro-phenyl)-5-methoxy-[1,2,4]triazolo[1,5-a]pyridin-2-yl]-benzamide]
6.29 | COc1cccc(-c2ccc(OC)n3nc(NC(=O)c4cccs4)nc23)c1 [Example 21, Thiophene-2-carboxylic acid[5-methoxy-8-(3-methoxy-phenyl)-[1,2,4]thiazolo[1,5-a]pyridin-2-yl]-amide]
